Assay results taken from ChEMBL document CHEMBL1811764, “Structure-activity studies of RNA-binding oxazolidinone derivatives” (Bioorg Med Chem Lett, 2011).

Tests used:
Nucleic Acid [1] = assay: Binding affinity to Bacillus subtilis AM1A C11U antiterminator model RNA variant assessed as increase in fluorescence by FRET assay relative to control; type: nucleic-acid assay; design: concentration or dose not given beside the values
Nucleic Acid [2] = assay: Binding affinity to Bacillus subtilis AM1A antiterminator model RNA assessed as increase in fluorescence at 10 uM by FRET assay relative to control; type: nucleic-acid assay

Compound `O=C1N[C@H](CN2CCN(c3ccccc3)CC2)[C@@H](COC(=O)c2ccc(Cl)cc2)O1` has an Activity (Nucleic Acid [1]) of 22.8% and an Activity (Nucleic Acid [2]) of 29.1%.

`O=C(CCCC1CCCCC1)OC[C@H]1OC(=O)N[C@@H]1CN1CCN(c2ccccc2)CC1` gave an Activity (Nucleic Acid [1]) of 29% and an Activity (Nucleic Acid [2]) of 31.8%.

With `Cc1ccc(C(=O)OC[C@H]2OC(=O)N[C@@H]2CN2CCN(c3ccccc3)CC2)cc1` the Activity (Nucleic Acid [1]) was 27.5% and the Activity (Nucleic Acid [2]) was 27.4%.

With `COc1ccc(CC(=O)OC[C@H]2OC(=O)N[C@@H]2CN2CCN(c3ccccc3)CC2)cc1` the Activity (Nucleic Acid [1]) was 18.8% and the Activity (Nucleic Acid [2]) was 13.7%.

Work on `O=C(COc1ccccc1)OC[C@H]1OC(=O)N[C@@H]1CN1CCN(c2ccccc2)CC1` yielded an Activity (Nucleic Acid [1]) of 9.4% and an Activity (Nucleic Acid [2]) of 9.5%.

`O=C1N[C@H](CN2CCN(c3ccccc3)CC2)[C@@H](COC(=O)c2ccccc2F)O1` showed an Activity (Nucleic Acid [1]) of 20.4% and an Activity (Nucleic Acid [2]) of 18.5%.

Compound `O=C(Nc1ccccc1)OC[C@H]1OC(=O)N[C@@H]1CN1CCN(c2ccccc2)CC1` has an Activity (Nucleic Acid [1]) of 11.2% and an Activity (Nucleic Acid [2]) of 8.4%.

Compound `O=C(Cc1ccc([N+](=O)[O-])cc1)OC[C@H]1OC(=O)N[C@@H]1CN1CCN(c2ccccc2)CC1` has an Activity (Nucleic Acid [1]) of 16.5% and an Activity (Nucleic Acid [2]) of 9.1%.

With `Cc1cccc(C(C)(C)C)c1NC(=O)OC[C@H]1OC(=O)N[C@@H]1CN1CCN(c2ccccc2)CC1` the Activity (Nucleic Acid [1]) was 15.4% and the Activity (Nucleic Acid [2]) was 14.8%.

`CCCCCCNC(=O)OC[C@H]1OC(=O)N[C@@H]1CN1CCN(c2ccccc2)CC1` gave an Activity (Nucleic Acid [1]) of 23.7% and an Activity (Nucleic Acid [2]) of 17.4%.

For `O=C1N[C@H](CN2CCN(c3ccccc3)CC2)[C@@H](COC(=O)c2ccccc2I)O1`, the Activity (Nucleic Acid [1]) was 22.4% and the Activity (Nucleic Acid [2]) was 28.6%.

For `O=C1N[C@H](CN2CCN(c3ccccc3)CC2)[C@@H](COC(=O)c2c(Cl)cccc2Cl)O1`, the Activity (Nucleic Acid [1]) was 16.2% and the Activity (Nucleic Acid [2]) was 15.3%.

Work on `O=C(CCCCCc1ccccc1)OC[C@H]1OC(=O)N[C@@H]1CN1CCN(c2ccccc2)CC1` yielded an Activity (Nucleic Acid [1]) of 30.9% and an Activity (Nucleic Acid [2]) of 32.6%.

For `CN(C)c1cccc(C(=O)OC[C@H]2OC(=O)N[C@@H]2CN2CCN(c3ccccc3)CC2)c1`, the Activity (Nucleic Acid [1]) was 27.1% and the Activity (Nucleic Acid [2]) was 24.6%.

`CC(C)(C)OC(=O)N[C@H](C(=O)OC[C@H]1OC(=O)N[C@@H]1CN1CCN(c2ccccc2)CC1)c1ccccc1` gave an Activity (Nucleic Acid [1]) of 19.4% and an Activity (Nucleic Acid [2]) of 26.7%.

For `CCCC(=O)OC[C@H]1OC(=O)N[C@@H]1CN1CCN(c2ccccc2)CC1`, the Activity (Nucleic Acid [1]) was 19.7% and the Activity (Nucleic Acid [2]) was 10.1%.

Compound `CC(=O)c1ccc(NC(=O)OC[C@H]2OC(=O)N[C@@H]2CN2CCN(c3ccccc3)CC2)cc1` has an Activity (Nucleic Acid [1]) of 13.4% and an Activity (Nucleic Acid [2]) of 7.7%.

With `CCCCNC(=O)OC[C@H]1OC(=O)N[C@@H]1CN1CCN(c2ccccc2)CC1` the Activity (Nucleic Acid [1]) was 14% and the Activity (Nucleic Acid [2]) was 10.5%.

`O=C(Cc1ccc(Cl)c(Cl)c1)OC[C@H]1OC(=O)N[C@@H]1CN1CCN(c2ccccc2)CC1` was tested, and the Activity (Nucleic Acid [1]) was 28.9% and the Activity (Nucleic Acid [2]) was 29.1%.

Compound `CC(C)(C)C(=O)OC[C@H]1OC(=O)N[C@@H]1CN1CCN(c2ccccc2)CC1` has an Activity (Nucleic Acid [1]) of 13.2% and an Activity (Nucleic Acid [2]) of 7.1%.

Work on `O=C(NCc1ccccc1)OC[C@H]1OC(=O)N[C@@H]1CN1CCN(c2ccccc2)CC1` yielded an Activity (Nucleic Acid [1]) of 11.7% and an Activity (Nucleic Acid [2]) of 6.1%.

For `COc1cccc(CC(=O)OC[C@H]2OC(=O)N[C@@H]2CN2CCN(c3ccccc3)CC2)c1`, the Activity (Nucleic Acid [1]) was 19.6% and the Activity (Nucleic Acid [2]) was 18.9%.

With `O=C1N[C@H](CN2CCN(c3ccccc3)CC2)[C@@H](COC(=O)c2ccccc2)O1` the Activity (Nucleic Acid [1]) was 18.6% and the Activity (Nucleic Acid [2]) was 14.8%.

In the case of `O=C(CC1CC2CCC1C2)OC[C@H]1OC(=O)N[C@@H]1CN1CCN(c2ccccc2)CC1` (stereo partly specified), the Activity (Nucleic Acid [1]) is reported as 27.4% and the Activity (Nucleic Acid [2]) is reported as 29.5%.

For `CCCCCC(=O)OC[C@H]1OC(=O)N[C@@H]1CN1CCN(c2ccccc2)CC1`, the Activity (Nucleic Acid [1]) was 21% and the Activity (Nucleic Acid [2]) was 15.5%.

`O=C1N[C@H](CN2CCN(c3ccccc3)CC2)[C@@H](COC(=O)C2CCCCC2)O1` was tested, and the Activity (Nucleic Acid [1]) was 20.7% and the Activity (Nucleic Acid [2]) was 19.5%.

With `O=C1N[C@H](CN2CCN(c3ccccc3)CC2)[C@@H](COC(=O)c2cc(OCc3ccccc3)c(OCc3ccccc3)c(OCc3ccccc3)c2)O1` the Activity (Nucleic Acid [1]) was 18.6% and the Activity (Nucleic Acid [2]) was 14.3%.

For `CC(C)CCC(=O)OC[C@H]1OC(=O)N[C@@H]1CN1CCN(c2ccccc2)CC1`, the Activity (Nucleic Acid [1]) was 20.2% and the Activity (Nucleic Acid [2]) was 15%.

`O=C(Nc1cccc([N+](=O)[O-])c1)OC[C@H]1OC(=O)N[C@@H]1CN1CCN(c2ccccc2)CC1` showed an Activity (Nucleic Acid [1]) of 0.2% and an Activity (Nucleic Acid [2]) of -1.1%.

`CCCNC(=O)OC[C@H]1OC(=O)N[C@@H]1CN1CCN(c2ccccc2)CC1` was tested, and the Activity (Nucleic Acid [1]) was 9.6% and the Activity (Nucleic Acid [2]) was 10.3%.

`N#Cc1ccccc1C(=O)OC[C@H]1OC(=O)N[C@@H]1CN1CCN(c2ccccc2)CC1` was tested, and the Activity (Nucleic Acid [1]) was 16.7% and the Activity (Nucleic Acid [2]) was 7.3%.

Work on `CC(C)CC(=O)OC[C@H]1OC(=O)N[C@@H]1CN1CCN(c2ccccc2)CC1` yielded an Activity (Nucleic Acid [1]) of 14% and an Activity (Nucleic Acid [2]) of 9.5%.

`O=C1N[C@H](CN2CCN(c3ccccc3)CC2)[C@@H](COC(=O)c2ccco2)O1` was tested, and the Activity (Nucleic Acid [1]) was 14.7% and the Activity (Nucleic Acid [2]) was 6.4%.

Compound `O=C(Cc1ccccc1)OC[C@H]1OC(=O)N[C@@H]1CN1CCN(c2ccccc2)CC1` has an Activity (Nucleic Acid [1]) of 15.9% and an Activity (Nucleic Acid [2]) of 8.5%.

For `O=C1N[C@H](CN2CCN(c3ccccc3)CC2)[C@@H](COC(=O)c2ccc([N+](=O)[O-])cc2)O1`, the Activity (Nucleic Acid [1]) was 15.2% and the Activity (Nucleic Acid [2]) was 13.1%.

Compound `Cc1cccc(NC(=O)OC[C@H]2OC(=O)N[C@@H]2CN2CCN(c3ccccc3)CC2)c1` has an Activity (Nucleic Acid [1]) of 26.7% and an Activity (Nucleic Acid [2]) of 16.8%.

Work on `CC(C)(C)OC(=O)N[C@@H](C(=O)OC[C@H]1OC(=O)N[C@@H]1CN1CCN(c2ccccc2)CC1)c1ccccc1` yielded an Activity (Nucleic Acid [1]) of 42.6% and an Activity (Nucleic Acid [2]) of 39.6%.

In the case of `O=C(Nc1ccc([N+](=O)[O-])cc1)OC[C@H]1OC(=O)N[C@@H]1CN1CCN(c2ccccc2)CC1`, the Activity (Nucleic Acid [1]) is reported as -4.9% and the Activity (Nucleic Acid [2]) is reported as -1.8%.

`CCCCCCCC(=O)OC[C@H]1OC(=O)N[C@@H]1CN1CCN(c2ccccc2)CC1` was tested, and the Activity (Nucleic Acid [1]) was 25.4% and the Activity (Nucleic Acid [2]) was 18.1%.

For `O=C(Nc1ccc(Cl)c(Cl)c1)OC[C@H]1OC(=O)N[C@@H]1CN1CCN(c2ccccc2)CC1`, the Activity (Nucleic Acid [1]) was 14.7% and the Activity (Nucleic Acid [2]) was 8.9%.

For `COc1cccc(C(=O)OC[C@H]2OC(=O)N[C@@H]2CN2CCN(c3ccccc3)CC2)c1`, the Activity (Nucleic Acid [1]) was 24.7% and the Activity (Nucleic Acid [2]) was 23.8%.

In the case of `CCc1ccc(NC(=O)OC[C@H]2OC(=O)N[C@@H]2CN2CCN(c3ccccc3)CC2)cc1`, the Activity (Nucleic Acid [1]) is reported as 19.1% and the Activity (Nucleic Acid [2]) is reported as 18.3%.

For `O=C1N[C@H](CN2CCN(c3ccccc3)CC2)[C@@H](COC(=O)c2ccccc2Cl)O1`, the Activity (Nucleic Acid [1]) was 28.8% and the Activity (Nucleic Acid [2]) was 30.4%.

`O=C1N[C@H](CN2CCN(c3ccccc3)CC2)[C@@H](COC(=O)Oc2ccccc2)O1` showed an Activity (Nucleic Acid [1]) of 21.3% and an Activity (Nucleic Acid [2]) of 12.4%.

With `COc1ccc(NC(=O)OC[C@H]2OC(=O)N[C@@H]2CN2CCN(c3ccccc3)CC2)cc1` the Activity (Nucleic Acid [1]) was 7.7% and the Activity (Nucleic Acid [2]) was 7.8%.

`CC(C)(C)OC(=O)NCCCCC(=O)OC[C@H]1OC(=O)N[C@@H]1CN1CCN(c2ccccc2)CC1` gave an Activity (Nucleic Acid [1]) of 27.7% and an Activity (Nucleic Acid [2]) of 29.4%.

In the case of `O=C1N[C@H](CN2CCN(c3ccccc3)CC2)[C@@H](COC(=O)c2ccccc2Oc2ccccc2)O1`, the Activity (Nucleic Acid [1]) is reported as 26.5% and the Activity (Nucleic Acid [2]) is reported as 30.8%.

Compound `O=C(Cc1ccc(-c2ccccc2)cc1)OC[C@H]1OC(=O)N[C@@H]1CN1CCN(c2ccccc2)CC1` has an Activity (Nucleic Acid [1]) of 22.3% and an Activity (Nucleic Acid [2]) of 25.3%.

`CCCCCc1ccc(NC(=O)OC[C@H]2OC(=O)N[C@@H]2CN2CCN(c3ccccc3)CC2)cc1` gave an Activity (Nucleic Acid [1]) of 11.1% and an Activity (Nucleic Acid [2]) of 10.6%.

Work on `Cc1c(C(=O)OC[C@H]2OC(=O)N[C@@H]2CN2CCN(c3ccccc3)CC2)cccc1[N+](=O)[O-]` yielded an Activity (Nucleic Acid [1]) of 24.5% and an Activity (Nucleic Acid [2]) of 23.3%.

`CC(C)=CCCC(C)CC(=O)OC[C@H]1OC(=O)N[C@@H]1CN1CCN(c2ccccc2)CC1` (stereo partly specified) showed an Activity (Nucleic Acid [1]) of 42.4% and an Activity (Nucleic Acid [2]) of 38.9%.

For `O=C(CCc1ccccc1)OC[C@H]1OC(=O)N[C@@H]1CN1CCN(c2ccccc2)CC1`, the Activity (Nucleic Acid [1]) was 26.1% and the Activity (Nucleic Acid [2]) was 20.6%.

Compound `CC(C)(C)NC(=O)OC[C@H]1OC(=O)N[C@@H]1CN1CCN(c2ccccc2)CC1` has an Activity (Nucleic Acid [1]) of 8.7% and an Activity (Nucleic Acid [2]) of 8.9%.
